Results taken from PubChem BioAssay (NCI).
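Cultured in 96-well plates, cells were exposed to test compound for 48 hours across five concentrations. TGI: concentration producing complete growth inhibition.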

Experiments:
Assay in all cases: NCI anticancer screen, dose series, 48 h
NCI-H226 lung = test system: NCI-H226 lung
CCRF-CEM leukemia = test system: CCRF-CEM leukemia
T-47D breast = test system: T-47D breast
DU-145 prostate = test system: DU-145 prostate
CAKI-1 renal = test system: CAKI-1 renal
U251 CNS = test system: U251 CNS
HCC-2998 colon = test system: HCC-2998 colon
NCI/ADR-RES ovarian = test system: NCI/ADR-RES ovarian
SNB-75 CNS = test system: SNB-75 CNS
A549 NSCLC = test system: A549 NSCLC
NCI-H460 lung = test system: NCI-H460 lung
SF-295 CNS = test system: SF-295 CNS
UACC-62 melanoma = test system: UACC-62 melanoma
BT-549 breast = test system: BT-549 breast
PC-3 prostate = test system: PC-3 prostate
NCI-H23 lung = test system: NCI-H23 lung
LOX IMVI melanoma = test system: LOX IMVI melanoma
SW-620 colon = test system: SW-620 colon

Row | Structure (SMILES) | TGI (NCI-H226 lung) | TGI (CCRF-CEM leukemia) | TGI (T-47D breast) | TGI (DU-145 prostate) | TGI (CAKI-1 renal) | TGI (U251 CNS) | TGI (HCC-2998 colon) | TGI (NCI/ADR-RES ovarian) | TGI (SNB-75 CNS) | TGI (A549 NSCLC) | TGI (NCI-H460 lung) | TGI (SF-295 CNS) | TGI (UACC-62 melanoma) | TGI (BT-549 breast) | TGI (PC-3 prostate) | TGI (NCI-H23 lung) | TGI (LOX IMVI melanoma) | TGI (SW-620 colon)
1 | O=C(/C=C/c1ccc(OCc2ccccc2)cc1)NCc1ccc(C(=O)NCCc2c[nH]c3ccccc23)cc1 | > 58.8 µM | > 100 µM | > 100 µM | > 100 µM | 45.4 µM | 20.5 µM | > 100 µM | > 100 µM | 38.1 µM | 87.6 µM | > 100 µM | 17.2 µM | 51.7 µM | > 100 µM | 55 µM | 38.8 µM | > 100 µM | > 100 µM
2 | N#Cc1cc2c(cc1C#N)/C(=N\c1cccc(N)n1)N=C2Nc1cccc(N)n1 | > 100 µM | > 100 µM | > 100 µM | > 100 µM | 34.1 µM | > 100 µM | 57.5 µM | > 100 µM | 76.1 µM | > 100 µM | > 100 µM | > 100 µM | 41 µM | 84.3 µM | > 100 µM | 40.1 µM | > 100 µM | 60.1 µM
3 | COC(=O)CN(CC(O)C(NC(C)=O)C(O)C=O)C(=O)OCc1ccccc1 (centres undefined) | > 100 µM | > 100 µM | > 100 µM | > 100 µM | > 100 µM | > 100 µM | > 100 µM | > 100 µM | > 100 µM | > 100 µM | > 100 µM | > 100 µM | > 100 µM | > 100 µM | > 100 µM | > 100 µM | > 100 µM | > 100 µM
4 | COC(=O)c1c(C)[nH]c2c1C(=O)C(=O)c1nc(C)c(C)nc1-2 | 26.7 µM | 35.7 µM | 9.55 µM | 25.5 µM | > 100 µM | 18.4 µM | 24 µM | 78.1 µM | 7.95 µM | > 100 µM | > 100 µM | 18.3 µM | 18.9 µM | 23 µM | 29.3 µM | 36.9 µM | 24.1 µM | 41.7 µM
5 | O/N=C1\CC2(N3CCOCC3)CCC1(c1ccccc1)CC2 | > 100 µM | > 100 µM | > 100 µM | > 100 µM | > 100 µM | > 100 µM | > 100 µM | > 100 µM | > 100 µM | > 100 µM | > 100 µM | > 100 µM | > 100 µM | > 100 µM | > 100 µM | > 100 µM | > 100 µM | > 100 µM
6 | Cc1c(O)c(OC2OC(CO)C(O)C(O)C2O)cc2c1CC[C@@H]1C2(C)C(=O)C[C@]2(C)[C@@H]([C@@](C)(O)C3CCC(C)(C)O3)[C@H](O)C[C@@]12C (some centres undefined) | > 100 µM | > 100 µM | > 100 µM | > 100 µM | > 100 µM | > 100 µM | > 100 µM | > 100 µM | > 100 µM | > 100 µM | > 100 µM | > 100 µM | > 100 µM | > 100 µM | > 100 µM | > 100 µM | > 100 µM | > 100 µM
7 | CCCN(CCC)C(=S)N/N=C(/C)c1ccccc1O | > 41 µM | > 33.9 µM | > 28.9 µM | > 100 µM | > 100 µM | > 57.8 µM | > 100 µM | 5.57 µM | 35.4 µM | > 100 µM | 13.3 µM | > 100 µM | 15.1 µM | 47.9 µM | > 100 µM | > 68.2 µM | > 100 µM | > 100 µM
8 | CN(C)CCNCc1ccc2c(-c3ccccc3)nc3cc(Cl)c(Cl)cc3n12 | 37.5 µM | 29.4 µM | 15.1 µM | 23.3 µM | 18.9 µM | 22.7 µM | 5.83 µM | 31.4 µM | 20.2 µM | 24.3 µM | 23.9 µM | 27.7 µM | 17.7 µM | 30.9 µM | 27.3 µM | 28.9 µM | 14.9 µM | 28.3 µM
9 | C[C@@H](CC(=O)O)OC1OC(COC(=O)C(C)(C)C)C(OC(=O)C(C)(C)C)C(OC(=O)C(C)(C)C)C1OC(=O)C(C)(C)C (some centres undefined) | > 100 µM | 55.9 µM | > 100 µM | > 100 µM | > 100 µM | > 100 µM | > 100 µM | > 100 µM | > 100 µM | > 100 µM | 75.7 µM | > 100 µM | > 100 µM | > 100 µM | > 100 µM | 93.5 µM | > 100 µM | > 100 µM
10 | CC(C)(C)OC(=O)N1CC(CCl)c2ccc(O)cc21 (centres undefined) | 4.53 µM | 9.61 µM | 12.7 µM | 5.73 µM | 11.6 µM | 12.1 µM | 2.02 µM | 3.68 µM | 3.11 µM | 11.3 µM | 10.2 µM | 18.7 µM | 4.56 µM | 4.61 µM | 5.51 µM | 2.32 µM | 3.72 µM | 11 µM
11 | CNC(=O)N(CCC#N)CCN(C(=O)N(C)C)c1ccccc1 | > 100 µM | > 100 µM | > 100 µM | > 100 µM | > 100 µM | > 100 µM | > 100 µM | > 100 µM | > 100 µM | > 100 µM | > 100 µM | > 100 µM | > 100 µM | > 100 µM | > 100 µM | > 100 µM | > 100 µM | > 100 µM
12 | COc1cccc2c1C1(O)C2CCCCCCCCCC12OCCCO2 (centres undefined) | > 94.2 µM | > 92.4 µM | > 100 µM | > 100 µM | > 100 µM | > 100 µM | > 100 µM | > 100 µM | > 91.8 µM | > 100 µM | > 59.5 µM | > 86.9 µM | > 100 µM | > 100 µM | > 100 µM | > 100 µM | > 61.8 µM | > 100 µM
13 | CC(=O)NC1C(OC(C)C(=O)NC(C(=O)NC(CCC(=O)NCCCNC2c3ccccc3Nc3cccc([N+](=O)[O-])c32)C(N)=O)C(C)C)C(O)C(CO)OC1(C)OCc1ccccc1 (centres undefined) | 2.95 µM | 4.59 µM | 4.16 µM | 0.817 µM | 3.05 µM | 3.22 µM | 2.2 µM | 4.76 µM | 4.34 µM | 1.94 µM | 0.405 µM | 3.23 µM | 2.1 µM | 4.1 µM | 3.33 µM | 3.3 µM | 4.6 µM | 1.81 µM
